Data: patent US20050089558A1 (Alamo Pharmaceuticals, LLC, priority 2003, published 2005)
Read-outs that look alike come from different tables or passages of the source.

Key:
[1] = tested on: NMDA receptor; conditions: in words, a recent study; cited from earlier work
[2] = tested on: abdominal muscle contractions (writhing) induced by 0.6% acetic acid; test: acetic acid writhing test of analgesia in mice; assay type: in vivo, Crl:CFW (SW) BR mice; conditions: 0.6% acetic acid i.p. 30 min later, male mice; for Ave. # of writhes: 15-minute count
Description: In the animal studies presented in Examples 5-7, tramadol and dextro-propoxyphene were administered neat (undiluted), or were diluted with diluted with saline (i.e. 0.9% Sodium Chloride for injection) in order to achieve the desired dose volumes. Fresh solutions were prepared for each concentration (of each compound) prior to administration.
Acetic acid was used to assess experimental pain or “writhing.” Specifically, thirty minutes after dosing, the writhing-induction agent (0.6% Acetic Acid) was administered to all experimental groups by intraperitoneal injection at a dose volume of 10 mL/kg.
Crl:CFW® (SW) BR mice, from Charles River Laboratories were used as the animal model to test the analgesia of the tramadol/propoxyphene co-formulations. The test animals were approximately 4 weeks of age on arrival and each animals weighed approximately 22 to 28 g within 3 days of arrival. […] Animals considered suitable for study were weighed prior to treatment and randomized, by sex, into treatment groups using a standard, by weight, block randomization procedure.
The protocols employed assessed the qualitative and quantitative changes in abdominal muscle contractions (writhing) induced after the […] administration of a noxious chemical stimulus, 0.6% acetic acid, in mice. The degree and amount of contractile abdominal activity is a measure of “experimentally-induced pain”. A decrease in the amount of writhing with prior administration of a test article is an experimental measure of “analgesia.”
Dose-response functions were generated for each of the two (2) test articles (tramadol, dextro-propoxyphene,). ED50 values for analgesic activity were estimated using a least squares linear regression analysis procedure using PHARM/PCS or SAS.
The test article, positive control, and vehicle were administered to all groups as a single subcutaneous injection in the scapular region on the back at a dose volume of 10 mL/kg and at the dose levels as presented in Table 1 below.
Thirty minutes after dosing, the writhing-induction article, 0.6% acetic acid, was administered to all groups by intraperitoneal injection at a dose volume of 10 mL/kg.
Immediately after administration of the writhing-induction article, animals were placed into a poly-observation chamber and a 15-minute evaluation period was initiated. During the 15-minute evaluation period, the number of “writhes” that occurred were recorded. For scoring purposes, a “writhe” was indicated by whole body stretching or contraction of the abdomen, further described as waves of contraction of the abdominal musculature, twisting and turning of the trunk, and hind-limb extension.

[3] = in vivo; cited from earlier work
[4] = cited from earlier work; for half-life: after a single oral dose of 100 mg tramadol, 2-compartmental elimination; for accumulation: during multiple dose treatment with tramadol
[5] = tested on: opioid receptors; conditions: in words; cited from earlier work
[6] = biological target: mu receptors of the CNS (Homo sapiens, UniProt P35372); conditions: relative to morphine; cited from earlier work
Chain of mu receptors of the CNS (P35372 whole entry): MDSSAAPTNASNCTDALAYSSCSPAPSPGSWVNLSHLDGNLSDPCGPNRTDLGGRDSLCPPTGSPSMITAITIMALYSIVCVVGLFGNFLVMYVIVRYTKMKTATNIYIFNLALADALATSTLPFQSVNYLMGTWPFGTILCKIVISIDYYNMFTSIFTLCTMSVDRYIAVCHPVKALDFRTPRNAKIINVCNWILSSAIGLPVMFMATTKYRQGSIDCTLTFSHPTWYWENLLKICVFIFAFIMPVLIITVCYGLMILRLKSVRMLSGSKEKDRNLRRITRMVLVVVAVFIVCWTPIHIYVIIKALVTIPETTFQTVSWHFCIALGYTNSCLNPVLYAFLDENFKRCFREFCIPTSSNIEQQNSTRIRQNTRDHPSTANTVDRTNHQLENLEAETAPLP

[7] = in words; cited from earlier work

Structure (SMILES) | Ave. # of writhes ([2]; 1.0 mg/kg single s.c. dose) | % Analgesia ([2]; 1.0 mg/kg single s.c. dose) [%] | Ave. # of writhes ([2]; 3.2 mg/kg single s.c. dose) | % Analgesia ([2]; 3.2 mg/kg single s.c. dose) [%] | half-life [4] [h] | accumulation [4] | affinity for opioid receptors [5] | further results
CCC(=O)OC(Cc1ccccc1)(c1ccccc1)C(C)CN(C)C (stereo not drawn) [Propoxyphene, 2-Butanol, 4-(dimethylamino)-3-methyl-1,2-diphenyl-, propionate, (+)-] | 59.4 | −12.29 | 45.4 | 14.18 | – | – | – | activity at the NMDA receptor [1]: antagonist activity; Ave. # of writhes ([2]; 10.0 mg/kg single s.c. dose): 26.7; % Analgesia ([2]; 10.0 mg/kg single s.c. dose): 49.53%; half-life [3]: 6 to 12 h
COc1cccc([C@]2(O)CCCC[C@H]2CN(C)C)c1 (racemic) [Tramadol, cyclohexanol, 2-((dimethylamino)methyl)-1-(3-methoxyphenyl)-, cis-(+−)-] | 55.1 | −4.16 | 31.7 | 40.08 | 5.1 | approximately 2 fold | low affinity | duration of the analgesic effect ([4]; after a single oral dose of tramadol 100 mg): about 6 hours; bioavailability ([4]; after oral administration): 68%; time to peak serum concentrations ([4]; after oral administration): ≤ 2 h; time to peak plasma levels ([4]; following oral administration): ≤ 2 h; Ave. # of writhes ([2]; 0.32 mg/kg single s.c. dose): 54.6; % Analgesia ([2]; 0.32 mg/kg single s.c. dose): −3.21%; affinity for mu receptors of the CNS, times lower than that of morphine [6]: 6000 times
CCC(=O)O[C@](Cc1ccccc1)(c1ccccc1)[C@H](C)CNC [norpropoxyphene] | – | – | – | – | – | – | – | analgesic properties [7]: very weak analgesic properties
CN(C)CC1CCCCC1(O)c1cccc(O)c1 (centres unmarked) [M1 derivative, O-demethyl tramadol] | – | – | – | – | 9 | approximately 2 fold | higher affinity for opioid receptors than the parent drug | –
